Measured values from US6777422B2, “Substituted tetrahydroisoquinolines as C5a receptor modulators” (Neurogen Corp., priority 2002, dated 2004).

The compounds below were run against T1, human C5a receptor (Homo sapiens, UniProt P21730) (assay: C5a receptor mediated calcium mobilization assay (Example 20)). Conditions: differentiated U937 cells, read-out: Ca2+ (Ki in the standard assay of C5a receptor mediated calcium mobilization).
T1 construct: endogenous in cells; host or cells: U937 cells differentiated with 1 mM dibutyryl cAMP
T1 sequence (P21730 1-350): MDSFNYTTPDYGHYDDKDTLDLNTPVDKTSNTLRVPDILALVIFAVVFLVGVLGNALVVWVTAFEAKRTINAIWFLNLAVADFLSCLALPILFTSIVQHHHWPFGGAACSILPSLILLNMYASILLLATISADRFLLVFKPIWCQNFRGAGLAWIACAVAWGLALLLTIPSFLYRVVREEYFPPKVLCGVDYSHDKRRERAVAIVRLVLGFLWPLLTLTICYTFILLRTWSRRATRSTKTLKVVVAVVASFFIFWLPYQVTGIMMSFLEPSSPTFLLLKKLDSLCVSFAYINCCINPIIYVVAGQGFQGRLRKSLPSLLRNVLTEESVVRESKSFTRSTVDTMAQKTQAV
Type: cell-based
Procedure: Calcium Mobilization Assays
U937 cells are grown in differentiation media (1 mM dibutyryl cAMP in RPMI 1640 medium containing 10% fetal bovine serum) for 48 hrs at 37° C. then reseeded onto 96-well plates suitable for use in a FLIPR™ Plate Reader (Molecular Devices Corp., Sunnyvale Calif.). Cells are grown an additional 24 hours (to 70-90% confluence) before the assay. The cells are then washed once with Krebs Ringer solution. FLUO-3 calcium sensitive dye (Molecular Probes, Inc. Eugene, Oreg.) is added to 10 μg/mL and incubated with the cells at room temperature for 1 to 2 hours. The 96 well plates are then washed to remove excess dye. Fluorescence responses, measured by excitation at 480 nm and emission at 530 nm, are monitored upon the addition of human C5a to the cells to a final concentration of 0.01-30.0 nM, using the FLIPR™ device (Molecular Devices).
C. Assays for the Identification of Receptor Modulatory Agents: Antagonists and Agonists
The calcium mobilization assay described above may be readily adapted for identifying test compounds that have agonist or antagonist activity at the human C5a receptor.
For example, in order to identify antagonist compounds, differentiated U937 cells are washed and incubated with Fluo-3 dye as described above. One hour prior to measuring the fluorescence signal, a subset of the cells is incubated with 1 μM of at least one compound to be tested. The fluorescence response upon the subsequent addition of 0.3 nM (final concentration) human recombinant C5a is monitored using the FLIPR™ plate reader. Antagonist compounds elicit at least a 2-fold decrease in the fluorescence response relative to that measured in the presence of human C5a alone. Preferred antagonist compounds elicit at least a 5-fold, preferably at least a 10-fold, and more preferably at least a 20-fold decrease in the fluorescence response relative to that measured in the presence of human C5a alone.
For `Cc1ccccc1[C@@H]1c2ccccc2CCN1[C@@H](C)C(=O)N(Cc1ccccc1F)C1Cc2ccccc2C1` (relative stereo) [Compound 19, N-(indan-2-yl)-N-(2-fluorobenzyl)-2-[1-(2-methylphenyl)-3,4-dihydroisoquinolin-2(1H)-yl]propanamide], the Ki was less than 1000 nM.
`O=C(CN1CCc2ccccc2[C@H]1c1ccccc1Br)N(Cc1ccccc1F)C1Cc2ccccc2C1` (stereo in doubt) [Compound 22, 2-[1-(2-bromophenyl)-3,4-dihydroisoquinolin-2(1H)-yl]-N-(indan-2-yl)-N-(2-fluorobenzyl)acetamide] was tested, and the Ki was less than 1000 nM.
`Cc1ccccc1C1c2ccccc2CCN1CC(=O)N(Cc1ccccc1F)C1Cc2ccccc2C1` (stereo in doubt) [Compound 28, N-(indan-2-yl)-N-(2-fluorobenzyl)-2-[(1S)-1-(2-methylphenyl)-3,4-dihydroisoquinolin-2(1H)-yl]acetamide] gave a Ki of less than 1000 nM.
`Cc1ccccc1C1c2ccccc2[C@@H](C)CN1CC(=O)N(Cc1ccccc1F)C1Cc2ccccc2C1` (stereo in doubt) [Compound 30, N-(2-Fluoro-benzyl)-N-indan-2-yl-2-(4-methyl-1-o-tolyl-3,4-dihydro-1H-isoquinolin-2-yl)-acetamide] gave a Ki of less than 1000 nM.
`Cc1ccccc1[C@@H]1c2ccccc2CCN1[C@@H](C)C(=O)N(Cc1ccccc1F)C1Cc2ccccc2C1` (stereo in doubt) [Compound 34, (2S)-N-(indan-2-yl)-N-(2-fluorobenzyl)-2-[(1R)-1-(2-methylphenyl)-3,4-dihydroisoquinolin-2(1H)-yl]propanamide] was tested, and the Ki was less than 1000 nM.
With `O=C(CN1CCc2ccccc2[C@H]1c1cccc(Cl)c1Cl)N(Cc1ccccc1F)C1Cc2ccccc2C1` (stereo in doubt) [Compound 36, 2-[1-(2,3-dichlorophenyl)-3,4-dihydroisoquinolin-2(1H)-yl]-N-(indan-2-yl)-N-(2-fluorobenzyl)acetamide] the Ki was less than 1000 nM.
With `Cc1ccccc1[C@H]1c2ccccc2CCN1[C@@H](C)C(=O)N(Cc1ccccc1F)C1Cc2ccccc2C1` (stereo in doubt) [Compound 39, (2S)-N-(indan-2-yl)-N-(2-fluorobenzyl)-2-[(1S)-1-(2-methylphenyl)-3,4-dihydroisoquinolin-2(1H)-yl]propanamide] the Ki was less than 1000 nM.
`Cc1ccccc1[C@@H]1c2ccccc2[C@@H](C)CN1CC(=O)N(Cc1ccccc1F)C1Cc2ccccc2C1` (stereo in doubt) [Compound 46, N-(indan-2-yl)-N-(2-fluorobenzyl)-2-[(1R,4R)-4-methyl-1-(2-methylphenyl)-3,4-dihydroisoquinolin-2(1H)-yl]acetamide] showed a Ki of less than 1000 nM.
`Cc1ccc(C)c([C@@H]2c3ccccc3CCN2CC(=O)N(Cc2ccccc2F)C2Cc3ccccc3C2)c1` (stereo in doubt) [Compound 49, N-(indan-2-yl)-2-[1-(2,5-dimethylphenyl)-3,4-dihydroisoquinolin-2(1H)-yl]-N-(2-fluorobenzyl)acetamide] showed a Ki of less than 1000 nM.
`Cc1ccc(Cl)cc1[C@@H]1c2ccccc2CCN1CC(=O)N(Cc1ccccc1F)C1Cc2ccccc2C1` (stereo in doubt) [Compound 51, 2-[1-(5-chloro-2-methylphenyl)-3,4-dihydroisoquinolin-2(1H)-yl]-N-(indan-2-yl)-N-(2-fluorobenzyl)acetamide] showed a Ki of less than 1000 nM.
`Cc1ccc(Cl)c([C@@H]2c3ccccc3CCN2CC(=O)N(Cc2ccccc2F)C2Cc3ccccc3C2)c1` (stereo in doubt) [Compound 52, 2-[1-(2-chloro-5-methylphenyl)-3,4-dihydroisoquinolin-2(1H)-yl]-N-(indan-2-yl)-N-(2-fluorobenzyl)acetamide] showed a Ki of less than 1000 nM.
Work on `Cc1ccccc1[C@@H]1c2c(ccc(C)c2C)CCN1CC(=O)N(Cc1ccccc1F)C1Cc2ccccc2C1` (stereo in doubt) [Compound 73, N-(indan-2-yl)-2-[7,8-dimethyl-1-(2-methylphenyl)-3,4-dihydroisoquinolin-2(1H)-yl]-N-(2-fluorobenzyl)acetamide] yielded a Ki of less than 1000 nM.
Work on `Cc1ccccc1[C@@H]1c2c(C)cccc2CCN1CC(=O)N(Cc1ccccc1F)C1Cc2ccccc2C1` (stereo in doubt) [Compound 78, N-(indan-2-yl)-N-(2-fluorobenzyl)-2-[8-methyl-1-(2-methylphenyl)-3,4-dihydroisoquinolin-2(1H)-yl]acetamide] yielded a Ki of less than 1000 nM.
For `COc1cccc2c1C(c1ccccc1C)N(CC(=O)N(Cc1ccccc1F)C1Cc3ccccc3C1)CC2` (centres unmarked) [Compound 14, N-(indan-2-yl)-N-(2-fluorobenzyl)-2-[8-methoxy-1-(2-methylphenyl)-3,4-dihydroisoquinolin-2(1H)-yl]acetamide], the Ki was less than 1000 nM.
In the case of `CCC1(c2ccccc2C)c2ccccc2CCN1CC(=O)N(Cc1ccccc1F)C1Cc2ccccc2C1` (centres unmarked) [Compound 16, N-(indan-2-yl)-2-[1-ethyl-1-(2-methylphenyl)-3,4-dihydroisoquinolin-2(1H)-yl]-N-(2-fluorobenzyl)acetamide], the Ki is reported as less than 1000 nM.
For `COc1ccccc1C1c2ccccc2CCN1CC(=O)N(Cc1ccccc1F)C1Cc2ccccc2C1` (centres unmarked) [Compound 24, N-(indan-2-yl)-N-(2-fluorobenzyl)-2-[1-(2-methoxyphenyl)-3,4-dihydroisoquinolin-2(1H)-yl]acetamide], the Ki was less than 1000 nM.
Work on `Cc1cccc(C2c3ccccc3CCN2CC(=O)N(Cc2ccccc2F)C2Cc3ccccc3C2)c1C` (centres unmarked) [Compound 25, N-(indan-2-yl)-2-[1-(2,3-dimethylphenyl)-3,4-dihydroisoquinolin-2(1H)-yl]-N-(2-fluorobenzyl)acetamide] yielded a Ki of less than 1000 nM.
For `Cc1ccccc1[C@@H]1c2ccccc2CCN1CC(=O)N(Cc1ccccc1F)C1Cc2ccccc2C1` [Compound 26, N-(indan-2-yl)-N-(2-fluorobenzyl)-2-[(1R)-1-(2-methylphenyl)-3,4-dihydroisoquinolin-2(1H)-yl]acetamide], the Ki was less than 1000 nM.
`Cc1ccccc1C1c2ccccc2[C@@H](C)CN1CC(=O)N(Cc1ccccc1F)C1Cc2ccccc2C1` (stereo partly drawn) [Compound 27, N-(indan-2-yl)-N-(2-fluorobenzyl)-2-[(4R)-4-methyl-1-(2-methylphenyl)-3,4-dihydroisoquinolin-2(1H)-yl]acetamide] was tested, and the Ki was less than 1000 nM.
Work on `CCc1ccccc1C1c2ccccc2CCN1CC(=O)N(Cc1ccccc1F)C1Cc2ccccc2C1` (centres unmarked) [Compound 29, N-(indan-2-yl)-2-[1-(2-ethylphenyl)-3,4-dihydroisoquinolin-2(1H)-yl]-N-(2-fluorobenzyl)acetamide] yielded a Ki of less than 1000 nM.
Compound `Cc1ccccc1C1c2ccccc2CCN1Cc1cnc(-c2ccccc2)n1C1Cc2ccccc2C1` (centres unmarked) [Compound 33, 2-{[1-(indan-2-yl)-2-phenyl-1H-imidazol-5-yl]methyl}-1-(2-methylphenyl)-1,2,3,4-tetrahydroisoquinoline] has a Ki of less than 1000 nM.
`Cc1ccc(C2c3ccccc3CCN2CC(=O)N(Cc2ccccc2F)C2Cc3ccccc3C2)cc1C` (centres unmarked) [Compound 35, N-(indan-2-yl)-2-[1-(3,4-dimethylphenyl)-3,4-dihydroisoquinolin-2(1H)-yl]-N-(2-fluorobenzyl)acetamide] was tested, and the Ki was less than 1000 nM.
`O=C(CN1CCc2ccccc2C1c1ccc(F)cc1C(F)(F)F)N(Cc1ccccc1F)C1Cc2ccccc2C1` (centres unmarked) [Compound 37, N-(indan-2-yl)-N-(2-fluorobenzyl)-2-[1-[4-fluoro-2-(trifluoromethyl)phenyl]-3,4-dihydroisoquinolin-2(1H)-yl]acetamide] was tested, and the Ki was less than 1000 nM.
`O=C(CN1CCc2ccccc2C1c1cc(F)ccc1C(F)(F)F)N(Cc1ccccc1F)C1Cc2ccccc2C1` (centres unmarked) [Compound 38, N-(indan-2-yl)-N-(2-fluorobenzyl)-2-[1-[5-fluoro-2-(trifluoromethyl)phenyl]-3,4-dihydroisoquinolin-2(1H)-yl]acetamide] gave a Ki of less than 1000 nM.

Same assay, conditions: differentiated U937 cells, unit inferred, read-out: Ca2+ (numeric value, C5a receptor mediated calcium mobilization)
`Cc1ccccc1[C@@H]1C2=C(CCCC2)CCN1CC(=O)N(Cc1ccccc1F)C1Cc2ccccc2C1` (stereo in doubt) [Compound 131, N-(2-Fluoro-benzyl)-N-indan-2-yl-2-(1-o-tolyl-3,4,5,6,7,8-hexahydro-1H-isoquinolin-2-yl)-acetamide] gave a Ki of 13.1 nM.
`Cc1ccccc1[C@@H]1CCCCN1[C@@H](C)C(=O)N(Cc1ccccc1F)C1Cc2ccccc2C1` (stereo in doubt) [Compound 132, N-(2-Fluoro-benzyl)-N-indan-2-yl-2-(2-o-tolyl-piperidin-1-yl)-propionamide] gave a Ki of 115 nM.
